Measured values taken from ChEMBL document CHEMBL5131527, “Novel BTK Inhibitors for Treating Autoimmune Disorders and Cancer” (ACS Med Chem Lett, 2022).

target: Tyrosine-protein kinase BTK (Homo sapiens, UniProt Q06187); test: Inhibition of BTK (unknown origin) using fluorescein-labeled polyGAT peptide as substrate incubated for 75 min in presence of ATP by time resolved fluorescence method
Sequence (Q06187 whole entry): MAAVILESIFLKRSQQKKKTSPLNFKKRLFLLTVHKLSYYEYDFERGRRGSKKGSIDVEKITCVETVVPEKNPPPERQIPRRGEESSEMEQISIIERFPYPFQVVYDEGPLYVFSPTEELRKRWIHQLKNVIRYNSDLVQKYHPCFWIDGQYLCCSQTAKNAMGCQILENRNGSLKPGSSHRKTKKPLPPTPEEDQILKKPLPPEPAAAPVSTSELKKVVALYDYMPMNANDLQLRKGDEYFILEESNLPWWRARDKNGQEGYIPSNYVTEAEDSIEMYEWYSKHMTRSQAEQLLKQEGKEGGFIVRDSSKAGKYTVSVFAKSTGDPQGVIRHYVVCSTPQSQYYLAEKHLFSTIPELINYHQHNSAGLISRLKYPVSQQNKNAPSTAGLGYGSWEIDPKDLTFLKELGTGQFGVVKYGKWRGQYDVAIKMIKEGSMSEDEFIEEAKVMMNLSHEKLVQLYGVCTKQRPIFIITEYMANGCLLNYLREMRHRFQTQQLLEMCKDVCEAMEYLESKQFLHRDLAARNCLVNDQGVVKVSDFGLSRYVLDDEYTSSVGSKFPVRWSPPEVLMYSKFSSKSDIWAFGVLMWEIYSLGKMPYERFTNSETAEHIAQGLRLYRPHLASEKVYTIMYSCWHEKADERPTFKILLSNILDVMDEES

IC50, ≤ 1 nM:
C=CC(=O)N(C)C1CCN(c2cncnc2-c2ccc(CNC(=O)c3cn(C(C)(C)C)nn3)c(C)c2)C1 (stereo unspecified)
C=CC(=O)N(C)C1CCCN(c2cnccc2-c2ccc(CNC(=O)c3noc(C(C)(C)C)n3)c(C)c2)C1 (stereo unspecified)
C=CC(=O)N(C)CC1CCN(c2cncnc2-c2ccc(CNC(=O)c3noc(C(C)(C)C)n3)c(C)c2)C1 (stereo unspecified)
C=CC(=O)N1CCN(c2cncnc2-c2ccc(CNC(=O)c3nnn(C(C)(C)C)n3)c(C)c2)CC1
C=CC(=O)N1CCN(c2cncnc2-c2ccc(CNC(=O)c3cn(C(C)(C)C)nn3)c(C)c2)CC1
C=CC(=O)N1CCN(c2cnccc2-c2ccc(CNC(=O)c3noc(C(C)(C)C)n3)c(C)c2)CC1
